Results as given in US10738024B2, “Compounds for treatment of angiogenesis-mediated diseases” (Indiana University Research and Technology Corporation, priority 2013, dated 2020).

Columns and labels:
HUVECs [1] = experiment: ALAMARBLUE proliferation assay in HUVECs; type: cell-based, human; conditions: Homo sapiens, HUVEC, 48 h, 50% growth inhibitory concentration, alamarBlue
Description: (§1) Particularly, in a 96-well clear bottom black plate, cells (2,500 cells per well) were seeded in a total volume of 100 μL EGM-2. After 24 hours of incubation of the plate at 37° C. and 5% CO2, a DMSO solution of synthetic cremastranone (1) or SH-11052 (2) was added in the concentration range of 0.5 nM to 500 μM (final DMSO concentration=1%). The plate was then further incubated for 48 hours before adding 11.1 μL of ALAMARBLUE® reagent to each well. Four hours after the addition of ALAMARBLUE®, fluorescence readings with excitation and emission wavelengths of 560 nm and 590 nm, respectively, were taken and the data were analyzed in GraphPad Prism software (v. 6.0). Dose response curves were generated and the GI50 values were calculated using the following equation: Y=100/(1+10^(X−Log GI50)).
(§2) For proliferation assays, cells (2500 per well) were seeded in a 96-well clear bottom black polystyrene plate in a total volume of 100 μL. HUVECs and HRECs were grown in EGM-2 and CSC+ media respectively, while 92-1 and Y79 cells were maintained in RPMI+10% FBS, penicillin/streptomycin and RB medium (IMDM+10% FBS+penicillin/streptomycin+10 μg/mL insulin+55 μM β-mercaptoethanol) respectively. After 24 hours of incubation of the plate at 37° C., the compounds were dissolved in DMSO and added in the concentration range of 500 μM to 0.5 nM. The plate was then incubated at 37° C. and 5% CO2 conditions for 48 hours before adding 11.1 μL of alamar blue reagent for each well. Four hours after the addition of ALAMARBLUE® reagent, fluorescence readings with excitation and emission wavelengths of 560 nm and 590 nm respectively were taken and the data was analyzed in GraphPad Prism software. The dose response curves were generated and the GI50 values were calculated using the equation: Y=100/(1+10^(X−Log GI50)) (Table 1).

HRECs = experiment: ALAMARBLUE proliferation assay in HRECs; type: cell-based, human; conditions: Homo sapiens, HREC; 50% growth inhibitory concentration, 48 hours, alamarBlue; read-out: GI50 HREC
Description: as §1, §2

[2] = system: Y-79 retinoblastoma cells; experiment: ALAMARBLUE proliferation assay in Y-79 retinoblastoma cells; type: cell-based; conditions: 50% growth inhibitory concentration, 48 hours
Description: as §2

[3] = system: 92-1 uveal melanoma cells; experiment: ALAMARBLUE proliferation assay in 92-1 uveal melanoma cells; type: cell-based; conditions: 50% growth inhibitory concentration, 48 hours, alamarBlue
Description: as §2

HUVECs [4] = conditions: cited from earlier work
p21^WAF1 (CDKN1A) = conditions: natural source compound; cited from earlier work
Cdc2 (CDK1) = conditions: cited from earlier work
prostaglandin synthesis = conditions: microsome assay; cited from earlier work
cyclooxygenases 1 and 2 = conditions: purified enzymes; cited from earlier work
JNK, p38 MAPK, ERK = conditions: keratinocytes exposed to UV radiation; cited from earlier work
NF-κB = conditions: keratinocytes exposed to UV radiation; cited from earlier work
TNF-α, IL-6 and IL-8 = conditions: keratinocytes exposed to UV radiation; cited from earlier work
[5] = system: reactive oxygen species (ROS); conditions: keratinocytes exposed to UV radiation; cited from earlier work
[6] = system: new vessel growth induced by bFGF; conditions: chick chorioallantoic membrane model; cited from earlier work
[7] = system: pathogenic neovascularization; conditions: in vivo; cited from earlier work
[8] = system: choroidal neovascularization; conditions: murine; cited from earlier work
retina = conditions: injection of 10 μM into the vitreous of normal adult mice; cited from earlier work

Structure (SMILES)	GI50 (HUVECs [1])	GI50 (HRECs)	GI50 [2]	GI50 [3]	further results
COc1ccc(/C=C2\COc3cc(OC)c(OC)c(O)c3C2=O)cc1O [Compound 11q]	5.4 µM	7 µM	6 µM	11 µM	
COC(=O)c1cc(/C=C2\COc3cc(OC)c(OC)c(OC)c3C2=O)ccc1OC [Compound 11r]	3.2 µM	5.5 µM	6 µM	> 100 µM	
COc1ccc(/C=C2\COc3cc(OC)c(OC)c(OC)c3C2=O)cc1F [Compound 11s]	7.6 µM	3.2 µM	10 µM	7 µM	
COc1cc2c(c(OC)c1OC)C(=O)/C(=C/c1ccc(OCc3ccccc3)c(OCc3ccccc3)c1)CO2 [Compound 11t]	64 µM	160 µM	109 µM	> 250 µM	
COc1cc(/C=C2\COc3cc(OC)c(OC)c(OC)c3C2=O)cc(OC)c1OC [Compound 11u]	10.4 µM	16.6 µM	9 µM	> 250 µM	
COc1cc2c(c(OC)c1OC)C(=O)/C(=C/c1cccc(Cl)c1Cl)CO2 [Compound 11v]	10.4 µM	25.6 µM	18 µM	31 µM	
COc1ccc(/C=C2\COc3cc(OC)c(OC)c(OC)c3C2=O)c(OC)c1OC [Compound 11w]	45 µM	91 µM	154 µM	> 250 µM	
COc1cc2c(c(OC)c1OC)C(=O)/C(=C/c1ccccc1[N+](=O)[O-])CO2 [Compound 11x]	9 µM	8.6 µM	8 µM	29 µM	
COc1ccc(/C=C2\CCOc3cc(OC)c(OC)c(OC)c3C2=O)cc1O [Compound 12, (E)-4-(3-hydroxy-4-methoxybenzylidene)-6,7,8-trimethoxy-3,4-dihydrobenzo[b]oxepin-5(2H)-one]	30 µM	35 µM	33 µM	145 µM	
COc1ccc(/C=C2\Cc3cc(OC)c(OC)c(OC)c3C2=O)cc1O [Compound 13, (E)-2-(3-hydroxy-4-methoxybenzylidene)-5,6,7-trimethoxy-2,3-dihydro-1H-inden-1-one]	19 µM	30 µM	49 µM	80 µM	
COc1ccc(CN2CCc3cc(OC)c(OC)c(OC)c3C2=O)cc1OCc1ccccc1 [Compound 14, 2-(3-(Benzyloxy)-4-methoxybenzyl)-6,7,8-trimethoxy-3,4-dihydroisoquinolin-1(2H)-one]	71 µM	103 µM	> 500 µM	6 µM	
COc1cc(OC)c2c(c1)OC/C(=C\c1ccc(OC)c(O)c1)C2=O [Compound 15a]	17.7 µM	37 µM	13.5 µM	78.5 µM	
COc1cc(OC)c2c(c1)OCC(Cc1ccc(OC)c(O)c1)C2=O (stereo not shown) [Compound 15b]	6.8 µM	1.6 µM	4.2 µM	> 250 µM	
COc1ccc(CC2COc3cc(O)c(OC)c(O)c3C2=O)cc1O (stereo not shown) [cremastranone, 5,7-dihydroxy-3-(3-hydroxy-4-methoxybenzyl)-6-methoxychroman-4-one]					50% growth inhibitory (GI50) concentration value in HUVEC proliferation assay (HUVECs [4]; reported for compound isolated from C. appendiculata): low micromolar range; proliferation of HUVECs (HUVECs [4]; via G2/M phase cell cycle arrest): blockade of the proliferation; expression of p21^WAF1 (CDKN1A) (p21^WAF1 (CDKN1A)): induces expression; expression of Cdc2 (CDK1) (Cdc2 (CDK1)): down-regulated; prostaglandin synthesis from arachidonic acid (prostaglandin synthesis): blocked prostaglandin synthesis; function of cyclooxygenases 1 and 2 (cyclooxygenases 1 and 2): without marked effects; phosphorylation of MAPKs (JNK, p38, ERK) (JNK, p38 MAPK, ERK): decreased phosphorylation; nuclear translocation of NF-κB (NF-κB): blocked nuclear translocation; production of cytokines TNF-α, IL-6 and IL-8 (TNF-α, IL-6 and IL-8): blocked; production of reactive oxygen species (ROS) [5]: blocked; blocking new vessel growth induced by bFGF [6]: as effective as retinoic acid; blocking pathogenic neovascularization, oxygen-induced retinopathy model [7]: showed efficacy; blocking pathogenic neovascularization, laser photocoagulation model of choroidal neovascularization [8]: showed efficacy; apoptosis of retinal cells (retina): nor did it induce apoptosis; cytotoxic or inflammatory effects on the retina (retina): no cytotoxic or inflammatory effects
